# Test results reported in patent US8796023B2, “Peptide nanostructures containing end-capping modified peptides and methods of generating and using the same” (Ramot at Tel-Aviv University Ltd., priority 2004, dated 2014).
# Like-named read-outs stand apart in the source and are kept apart here. Residues, ends and D or L forms follow the SMILES beside them. *: point of attachment. Fmoc = O=C(OCC1c2ccccc2-c2ccccc21)*; Cbz = O=C(OCc1ccccc1)*; Boc = CC(C)(C)OC(=O)*
# Key:
# [1] = same conditions, per WO 2004/052773; cited from earlier work
# [2] = Fourier transform infrared spectroscopy of the self-assembled structures; assay type: physicochemical; conditions: FT-IR amide-I region
# Description: Fourier Transform Infrared Spectroscopy—Infrared spectra were recorded using a Nicolet Nexus 470 FT-IR spectrometer with a deuterated triglycine sulfate (DTGS) detector. Peptide solution taken from the abovementioned SEM assays were deposited on a CaF2 plate and dried under reduced pressure. The peptide deposits were resuspended with D2O and subsequently dried to form thin films. The resuspension procedure was repeated twice to ensure maximal hydrogen to deuterium exchange. The measurements […] a 4 cm^−1 resolution and averaging of 2000 scans. The transmittance minimal values were determined by the OMNIC analysis program (Nicolet).
# [3] = Self-assembly of end-capping modified diphenylalanine peptides, viewed by SEM/TEM; assay type: physicochemical; conditions: for structures formed by self-assembly (morphology): HFIP stock diluted in ddH2O, SEM/TEM/AFM
# Description: (§1) Materials—End capping modified diphenylalanine peptides, presented in Table 3 hereinbelow, were purchase from Bachem (Bubendorf, Switzerland). Fresh stock solutions of the peptides were prepared by dissolving the lyophilized form of the peptides in 1,1,1,3,3,3-hexafluoro-2-propanol (HFIP, Sigma) at a concentration of 100 mg/ml. To avoid any pre-aggregation, fresh stock solutions were prepared for each experiment. The cyclo-Phe-Phe peptide (Peptide 8) was dissolved in HFIP to a concentration of 25 mg/ml and was subjected to ultrasound until a clear solution was obtained. The peptides stock solutions were diluted into a final concentration of 2 mg/ml in ddH2O. The NH2-Phe-Phe-NH2 peptide (Peptide 3) was diluted into a final concentration of 10 mg/ml in ddH2O.
# Scanning electron microscopy (SEM) —Immediately after dilution in ddH2O, peptide solution was allowed to dry at room temperature over glass cover slip and coated with gold. Scanning electron microscopy images were obtained using a JSM JEOL 6300 SEM operating at 5 kV.
# Transmission Electron microscopy (TEM) —Samples were placed on a 200 mesh copper grid, covered by carbon stabilized formvar film. After 1 minute excess fluid was removed and the grid was thereafter negatively stained with 2% uranyl acetate in water. After 2 minutes, excess fluid was removed from the grid. The samples were viewed in JEOL 1200EX electron microscope operating at 80 kV.
# High resolution transmission electron microscopy—Samples were viewed using a Philips Tecnai F20 Field Emission Gun electron microscope operating at 200 kV. EDX analysis was performed with EDAX detector.
# High resolution scanning electron microscopy—HRSEM grids were viewed using a JSM-6700 field emission scanning electron microscope equipped with a cold field emission gun operating at 1 kV.
# [4] = Atomic force microscope (AFM) imaging of the peptide nanostructures; assay type: physicochemical; conditions: tapping mode, deposited on mica
# Description: Atomic Force Microscope (AFM) imaging—The peptide sample solution was diluted again in ddH2O to a concentration of 1 mg/ml. Then the peptide solution was placed on mica grade and dried in vacuum. Dried sample was analyzed using Molecular Imaging PicoSPM II system in tapping mode.
# [5] = Dissolving the peptides for stock solutions; assay type: physicochemical; conditions: in water or in fluoroalcohols
# Description: as §1
molecular conformation of the self-assembled structures [2],structures formed by self-assembly (morphology) [3],Molecule,further results
–,–,"NC(Cc1ccccc1)C(=O)NC(Cc1ccccc1)C(=O)O (stereo not drawn) [Peptide 1, NH2-Phe-Phe-COOH] (H-Phe-Phe-OH; configuration not given here)",structures formed by self-assembly (morphology) [1]: formation of nanotubes
β-sheet conformation,organized and regular tubular structures,"CC(=O)NC(Cc1ccccc1)C(=O)NC(Cc1ccccc1)C(N)=O (stereo not drawn) [Peptide 2, Ac-Phe-Phe-NH2] (Ac-Phe-Phe-NH2; configuration not given here)","diameters of the tubular structures ([3]; SEM, within minutes after dilution of peptide stock into aqueous solution): few microns to less than 100 nanometers; height of nanostructures at the Z-range [4]: about 100 nm"
antiparallel β-sheet conformation,tubular structures,"NC(=O)C(Cc1ccccc1)NC(=O)C(N)Cc1ccccc1 (stereo not drawn) [Peptide 3, NH2-Phe-Phe-NH2] (H-Phe-Phe-NH2; configuration not given here)",–
–,–,"CC(=O)NC(Cc1ccccc1)C(=O)NC(Cc1ccccc1)C(=O)O (stereo not drawn) [Peptide 4, Ac-Phe-Phe-COOH] (Ac-Phe-Phe-OH; configuration not given here)",dissolution [5]: did not dissolve
α-helix conformation,highly ordered tubular structures,"CC(C)(C)OC(=O)NC(Cc1ccccc1)C(=O)NC(Cc1ccccc1)C(=O)O (stereo not drawn) [Peptide 5, Boc-Phe-Phe-COOH] (Boc-Phe-Phe-OH; configuration not given here)",–
–,fibrillar structures,"O=C(NC(Cc1ccccc1)C(=O)NC(Cc1ccccc1)C(=O)O)OCC1c2ccccc2-c2ccccc21 (stereo not drawn) [Peptide 6, Fmoc-Phe-Phe-COOH] (Fmoc-Phe-Phe-OH; configuration not given here)",–
antiparallel β-sheet conformation,fibrillar structures,"O=C(NC(Cc1ccccc1)C(=O)NC(Cc1ccccc1)C(=O)O)OCc1ccccc1 (stereo not drawn) [Peptide 7, Cbz-Phe-Phe-COOH] (Cbz-Phe-Phe-OH; configuration not given here)",–

Molecule,molecular conformation of the self-assembled structures [2],structures formed by self-assembly (morphology) [3],further results
cyclo-Phe-Phe [Peptide 8],either an α-helix or a β-turn conformation,bundles of tubular structures,–
